Data as given in the supplement of paper PMC10627819.

How the values were obtained:
Conditions in all cases: main component drawn
B. subtilis 168 [1] = assay: fitness (endpoint OD595 vs no drug) (fraction); higher = more growth
Outline: (§1)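 Cultures at OD595 0.01 were dispensed into 384-well plates in TSB, LB Lennox or CY and incubated at 37 °C. Every 30 min for 14 h, OD595 was read and corrected by the first reading. Fitness is the optical density at entry into stationary phase relative to the robust mean of no-drug control wells, capped at 1.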

S. aureus Newman [2] = assay: as above
Outline: as §1

B. subtilis 168 [3] = assay: Bliss interaction score (quartile over a dose matrix) (fitness difference); higher = more antagonism (negative = synergy)
Outline: (§2)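 The Bliss score is observed minus expected fitness, where expected fitness is the product of the single-drug fitness values inferred from the combination data. Fitness is the OD595 at the onset of stationary phase over the plate's robust no-drug mean, capped at 1. Scores are summarised by quartiles over technical, biological and donor/recipient replicates.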

S. aureus DSM 20231 = assay: as above
Outline: as §2

S. aureus Newman [4] = assay: as above
Outline: as §2

S. pneumoniae D39V = assay: as above
Outline: as §2
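Throughout, for Bliss interaction score (quartile over a dose matrix): first quartile when negative (synergy) and third quartile when positive (antagonism).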

CC[C@H](C)[C@H](N)C1=N[C@H](C(=O)N[C@@H](CC(C)C)C(=O)N[C@H](CCC(=O)O)C(=O)N[C@H](C(=O)N[C@H]2CCCCNC(=O)[C@H](CC(N)=O)NC(=O)[C@@H](CC(=O)O)NC(=O)[C@H](Cc3cnc[nH]3)NC(=O)[C@@H](Cc3ccccc3)NC(=O)[C@H]([C@@H](C)CC)NC(=O)[C@@H](CCCN)NC2=O)[C@@H](C)CC)CS1 [Bacitracin] + Cc1ncc([N+](=O)[O-])n1CCO [Metronidazole]
fitness
Conditions	partner 0.625 µg/mL	partner 0.781 µg/mL	partner 1.25 µg/mL	partner 1.562 µg/mL	partner 2.5 µg/mL	partner 3.124 µg/mL
B. subtilis 168 [1], first compound 37.5 µg/mL	0.956	–	0.931	–	0.902	–
B. subtilis 168 [1], first compound 75 µg/mL	0.964	–	0.931	–	0.903	–
B. subtilis 168 [1], first compound 150 µg/mL	–	–	–	–	0.811	–
S. aureus Newman [2], first compound 18.75 µg/mL	0.741	0.702	0.757	0.716	0.743	0.687
S. aureus Newman [2], first compound 37.5 µg/mL	0.308	0.21	0.243	0.243	0.181	0.26
S. aureus Newman [2], first compound 75 µg/mL	0.0054	0.03	0.0112	0.0279	0.0054	0.0683

Conditions	Bliss interaction score
B. subtilis 168 [3]	0.103
S. aureus DSM 20231	0.0734
S. aureus Newman [4]	0.0714
S. pneumoniae D39V	0.127

CC[C@H](C)[C@H](N)C1=N[C@H](C(=O)N[C@@H](CC(C)C)C(=O)N[C@H](CCC(=O)O)C(=O)N[C@H](C(=O)N[C@H]2CCCCNC(=O)[C@H](CC(N)=O)NC(=O)[C@@H](CC(=O)O)NC(=O)[C@H](Cc3cnc[nH]3)NC(=O)[C@@H](Cc3ccccc3)NC(=O)[C@H]([C@@H](C)CC)NC(=O)[C@@H](CCCN)NC2=O)[C@@H](C)CC)CS1 [Bacitracin] + Cc1onc(-c2ccccc2)c1C(=O)N[C@@H]1C(=O)N2[C@@H]1SC(C)(C)[C@@H]2C(=O)O [Oxacillin]
fitness
Conditions	first compound 18.75 µg/mL	first compound 37.5 µg/mL	first compound 75 µg/mL
B. subtilis 168 [1], partner 0.002 µg/mL	–	0.958	0.959
B. subtilis 168 [1], partner 0.004 µg/mL	–	0.955	0.913
B. subtilis 168 [1], partner 0.008 µg/mL	–	0.924	0.835
S. aureus Newman [2], partner 0.0156 µg/mL	0.534	0.0937	0.0408
S. aureus Newman [2], partner 0.0312 µg/mL	–	0.0243	0.0443
S. aureus Newman [2], partner 0.0625 µg/mL	0.0815	0.0177	0.0488

fitness, B. subtilis 168 [1], one replicate
Conditions	partner 0.0078 µg/mL	partner 0.0155 µg/mL	partner 0.031 µg/mL	partner 0.075 µg/mL	partner 0.15 µg/mL	partner 0.3 µg/mL
first compound 37.5 µg/mL	0.79	0.782	0.742	0.58	0.0238	0.0295
first compound 75 µg/mL	0.778	0.76	0.701	0.496	0.0193	0.0177
first compound 150 µg/mL	0.447	0.36	0.316	0.242	0.0097	0.0106

Conditions	Bliss interaction score
B. subtilis 168 [3]	-0.0456
S. aureus DSM 20231	0.0803
S. aureus Newman [4]	-0.118
S. pneumoniae D39V	-0.107

CC[C@H](C)[C@H](N)C1=N[C@H](C(=O)N[C@@H](CC(C)C)C(=O)N[C@H](CCC(=O)O)C(=O)N[C@H](C(=O)N[C@H]2CCCCNC(=O)[C@H](CC(N)=O)NC(=O)[C@@H](CC(=O)O)NC(=O)[C@H](Cc3cnc[nH]3)NC(=O)[C@@H](Cc3ccccc3)NC(=O)[C@H]([C@@H](C)CC)NC(=O)[C@@H](CCCN)NC2=O)[C@@H](C)CC)CS1 [Bacitracin] + O=C(O)c1cn(C2CC2)c2cc(N3CCNCC3)c(F)cc2c1=O [Ciprofloxacin]
fitness
Conditions	first compound 18.75 µg/mL	first compound 37.5 µg/mL	first compound 75 µg/mL	first compound 150 µg/mL
B. subtilis 168 [1], partner 0.0098 µg/mL	–	0.88	0.889	0.897
B. subtilis 168 [1], partner 0.0195 µg/mL	–	0.718	0.659	0.559
B. subtilis 168 [1], partner 0.039 µg/mL	–	0.201	0.0773	0.0355
S. aureus Newman [2], partner 0.0375 µg/mL	0.524	0.199	0.0079	–
S. aureus Newman [2], partner 0.075 µg/mL	–	0.0916	0.013	–
S. aureus Newman [2], partner 0.15 µg/mL	0.0536	0.0155	0.0083	–

Conditions	Bliss interaction score
B. subtilis 168 [3]	-0.0665
S. aureus DSM 20231	-0.0438
S. aureus Newman [4]	-0.0418
S. pneumoniae D39V	-0.13
